Assay results reported in US10202360B2 (CELGENE QUANTICEL RESEARCH, INC., priority 2016, dated 2019).

These compounds were tested against CREBBP (Homo sapiens (Human), UniProt Q92793) (assay: In vitro enzyme inhibition assay - CREBBP inhibition (AlphaScreen, biotinylated H4-tetraacetyl peptide)). Settings: Table 28; AlphaScreen, H4-tetraacetyl peptide.
Type: binding
Summary of the method: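 Displacement of 20 nM biotinylated tetraacetyl-H4 peptide from 50 nM E. coli-expressed His-CREBBP, measured by AlphaScreen after bead equilibration for 2 h.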

CREBBP, sequence (Q92793 1081-1197): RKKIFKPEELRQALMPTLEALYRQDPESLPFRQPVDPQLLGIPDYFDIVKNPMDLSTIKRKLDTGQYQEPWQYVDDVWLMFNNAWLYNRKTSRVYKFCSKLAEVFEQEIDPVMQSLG

IC50 | SMILES
< 500 nM | Cc1cccc(C#N)c1Oc1nc(NCc2ccccn2)cc(-c2ccc(=O)n(C)c2)n1 [Example 319, 3-Methyl-2-{4-(1-methyl-6-oxo-1,6-dihydro-pyridin-3-yl)-6-[(pyridin-2-ylmethyl)-amino]-pyrimidin-2-yloxy}-benzonitrile]
< 500 nM | Cc1cccc(C#N)c1Oc1nc(NCc2ccccc2)cc(-c2ccc(=O)n(C)c2)n1 [Example 320, 2-[4-Benzylamino-6-(1-methyl-6-oxo-1,6-dihydro-pyridin-3-yl)-pyrimidin-2-yloxy]-3-methyl-benzonitrile]
< 500 nM | CCC[C@H](C)Nc1cc(-c2ccc(=O)n(C)c2)nc(Oc2c(C)cccc2C#N)n1 [Example 321, (S)-3-Methyl-2-[4-(1-methyl-butylamino)-6-(1-methyl-6-oxo-1,6-dihydro-pyridin-3-yl)-pyrimidin-2-yloxy]-benzonitrile]
< 500 nM | Cc1cccc(C#N)c1Oc1nc(N[C@@H](C)c2ccccc2)cc(-c2ccc(=O)n(C)c2)n1 [Example 322, (S)-3-Methyl-2-[4-(1-methyl-6-oxo-1,6-dihydro-pyridin-3-yl)-6-(1-phenyl-ethylamino)-pyrimidin-2-yloxy]-benzonitrile]
< 500 nM | Cc1cccc(C#N)c1Oc1nc(NCc2cccnc2)cc(-c2ccc(=O)n(C)c2)n1 [Example 323, 3-Methyl-2-{4-(1-methyl-6-oxo-1,6-dihydro-pyridin-3-yl)-6-[(pyridin-3-ylmethyl)-amino]-pyrimidin-2-yloxy}-benzonitrile]
< 500 nM | COc1nc(NCc2ccccc2)cc(-c2ccc(=O)n(C)c2)n1 [Example 324, 5-(6-Benzylamino-2-methoxy-pyrimidin-4-yl)-1-methyl-1H-pyridin-2-one]
500 to 5000 nM | CCCCNc1cc(-c2ccc(=O)n(C)c2)nc(OC)n1 [Example 325, 5-(6-Butylamino-2-methoxy-pyrimidin-4-yl)-1-methyl-1H-pyridin-2-one]
500 to 5000 nM | CCCC(C)Nc1cc(-c2ccc(=O)n(C)c2)nc(OC)n1 (stereo not drawn) [Example 326, 5-[2-Methoxy-6-(1-methyl-butylamino)-pyrimidin-4-yl]-1-methyl-1H-pyridin-2-one]
< 500 nM | COc1nc(NC(C)c2ccccc2)cc(-c2ccc(=O)n(C)c2)n1 (stereo not drawn) [Example 327, 5-[2-Methoxy-6-(1-phenyl-ethylamino)-pyrimidin-4-yl]-1-methyl-1H-pyridin-2-one]
< 500 nM | COc1nc(NCc2ccccn2)cc(-c2ccc(=O)n(C)c2)n1 [Example 328, 5-{2-Methoxy-6-[(pyridin-2-ylmethyl)-amino]-pyrimidin-4-yl}-1-methyl-1H-pyridin-2-one]
< 500 nM | COc1nc(NCCc2ccccc2)cc(-c2ccc(=O)n(C)c2)n1 [Example 329, 5-(2-Methoxy-6-phenethylamino-pyrimidin-4-yl)-1-methyl-1H-pyridin-2-one]
< 500 nM | COc1nc(NCc2cccnc2)cc(-c2ccc(=O)n(C)c2)n1 [Example 330, 5-{2-Methoxy-6-[(pyridin-3-ylmethyl)-amino]-pyrimidin-4-yl}-1-methyl-1H-pyridin-2-one]
< 500 nM | COc1nc(NCC2CCCc3ccccc32)cc(-c2ccc(=O)n(C)c2)n1 (stereo not drawn) [Example 331, 5-{2-Methoxy-6-[(1,2,3,4-tetrahydro-naphthalen-1-ylmethyl)-amino]-pyrimidin-4-yl}-1-methyl-1H-pyridin-2-one]
< 500 nM | Cc1cccc(F)c1Oc1nc(N)cc(-c2ccc(=O)n(C)c2)n1 [Example 332, 5-[6-Amino-2-(2-fluoro-6-methyl-phenoxy)-pyrimidin-4-yl]-1-methyl-1H-pyridin-2-one]
< 500 nM | Cc1cccc(Cl)c1Oc1nc(N)cc(-c2ccc(=O)n(C)c2)n1 [Example 333, 5-[6-Amino-2-(2-chloro-6-methyl-phenoxy)-pyrimidin-4-yl]-1-methyl-1H-pyridin-2-one]
< 500 nM | Cc1cccc(Cl)c1Oc1nc(N)cc(-c2cc(C)c(=O)n(C)c2)n1 [Example 334, 5-[6-Amino-2-(2-chloro-6-methyl-phenoxy)-pyrimidin-4-yl]-1,3-dimethyl-1H-pyridin-2-one]
< 500 nM | Cc1cccc(C)c1Oc1nc(C#N)cc(-c2cc(C)c(=O)n(C)c2)n1 [Example 335, 6-(1,5-dimethyl-6-oxo(3-hydropyridyl))-2-(2,6-dimethylphenoxy)pyrimidine-4-carbonitrile]
500 to 5000 nM | CCCS(=O)(=O)Nc1cc(-c2cc(C)c(=O)n(C)c2)nn1C [Example 336, Propane-1-sulfonic acid [5-(1,5-dimethyl-6-oxo-1,6-dihydro-pyridin-3-yl)-2-methyl-2H-pyrazol-3-yl]-amide]

IC50 | SMILES
< 500 nM | CCCCS(=O)(=O)Nc1cc(-c2ccc(=O)n(C)c2)nc(Oc2c(F)cccc2CC)n1 [Example 337, N-(2-(2-ethyl-6-fluorophenoxy)-6-(1-methyl-6-oxo-1,6-dihydropyridin-3-yl)pyrimidin-4-yl)butane-1-sulfonamide]
< 500 nM | CCc1cccc(F)c1Oc1nc(NS(=O)(=O)C(C)CC)cc(-c2ccc(=O)n(C)c2)n1 (stereo not drawn) [Example 338, N-(2-(2-ethyl-6-fluorophenoxy)-6-(1-methyl-6-oxo-1,6-dihydropyridin-3-yl)pyrimidin-4-yl)butane-2-sulfonamide]
< 500 nM | CCCS(=O)(=O)Nc1cc(-c2ccc(=O)n(C)c2)nc(Oc2c(F)cccc2CC)n1 [Example 339, N-(2-(2-ethyl-6-fluorophenoxy)-6-(1-methyl-6-oxo-1,6-dihydropyridin-3-yl)pyrimidin-4-yl)propane-1-sulfonamide]
< 500 nM | CC(C)S(=O)(=O)Nc1cc(-c2ccc(=O)n(C)c2)nc(Oc2c(F)cccc2F)n1 [Example 340, N-(2-(2,6-difluorophenoxy)-6-(1-methyl-6-oxo-1,6-dihydropyridin-3-yl)pyrimidin-4-yl)propane-2-sulfonamide]
< 500 nM | CCCS(=O)(=O)Nc1cc(-c2ccc(=O)n(C)c2)nc(Oc2c(F)cccc2F)n1 [Example 341, N-(2-(2,6-difluorophenoxy)-6-(1-methyl-6-oxo-1,6-dihydropyridin-3-yl)pyrimidin-4-yl)propane-1-sulfonamide]
< 500 nM | CCCCS(=O)(=O)Nc1cc(-c2ccc(=O)n(C)c2)nc(Oc2c(F)cccc2F)n1 [Example 342, N-(2-(2,6-difluorophenoxy)-6-(1-methyl-6-oxo-1,6-dihydropyridin-3-yl)pyrimidin-4-yl)butane-1-sulfonamide]
< 500 nM | CCCCS(=O)(=O)Nc1cc(-c2ccc(=O)n(C)c2)nc(Oc2c(C)cc(F)cc2F)n1 [Example 343, N-(2-(2,4-difluoro-6-methylphenoxy)-6-(1-methyl-6-oxo-1,6-dihydropyridin-3-yl)pyrimidin-4-yl)butane-1-sulfonamide]
< 500 nM | CCCS(=O)(=O)Nc1cc(-c2ccc(=O)n(C)c2)nc(Oc2c(C)cc(F)cc2F)n1 [Example 344, N-(2-(2,4-difluoro-6-methylphenoxy)-6-(1-methyl-6-oxo-1,6-dihydropyridin-3-yl)pyrimidin-4-yl)propane-1-sulfonamide]
< 500 nM | CCC(C)S(=O)(=O)Nc1cc(-c2ccc(=O)n(C)c2)nc(Oc2c(C)cc(F)cc2F)n1 (stereo not drawn) [Example 345, N-(2-(2,4-difluoro-6-methylphenoxy)-6-(1-methyl-6-oxo-1,6-dihydropyridin-3-yl)pyrimidin-4-yl)butane-2-sulfonamide]
< 500 nM | Cc1cc(F)cc(F)c1Oc1nc(NS(=O)(=O)C(C)C)cc(-c2ccc(=O)n(C)c2)n1 [Example 346, N-(2-(2,4-difluoro-6-methylphenoxy)-6-(1-methyl-6-oxo-1,6-dihydropyridin-3-yl)pyrimidin-4-yl)propane-2-sulfonamide]
< 500 nM | CCCCS(=O)(=O)Nc1cc(-c2ccc(=O)n(C)c2)nc(Oc2c(C)ccc(F)c2F)n1 [Example 347, N-(2-(2,3-difluoro-6-methylphenoxy)-6-(1-methyl-6-oxo-1,6-dihydropyridin-3-yl)pyrimidin-4-yl)butane-1-sulfonamide]
< 500 nM | CCCS(=O)(=O)Nc1cc(-c2ccc(=O)n(C)c2)nc(Oc2c(C)ccc(F)c2F)n1 [Example 348, N-(2-(2,3-difluoro-6-methylphenoxy)-6-(1-methyl-6-oxo-1,6-dihydropyridin-3-yl)pyrimidin-4-yl)propane-1-sulfonamide]
< 500 nM | CCC(C)S(=O)(=O)Nc1cc(-c2ccc(=O)n(C)c2)nc(Oc2c(C)ccc(F)c2F)n1 (stereo not drawn) [Example 349, N-(2-(2,3-difluoro-6-methylphenoxy)-6-(1-methyl-6-oxo-1,6-dihydropyridin-3-yl)pyrimidin-4-yl)butane-2-sulfonamide]
< 500 nM | CCCCS(=O)(=O)Nc1cc(-c2ccc(=O)n(C)c2)nc(Oc2c(F)ccc(F)c2C)n1 [Example 350, N-(2-(3,6-difluoro-2-methylphenoxy)-6-(1-methyl-6-oxo-1,6-dihydropyridin-3-yl)pyrimidin-4-yl)butane-1-sulfonamide]
< 500 nM | CCC(C)S(=O)(=O)Nc1cc(-c2ccc(=O)n(C)c2)nc(Oc2c(F)ccc(F)c2C)n1 (stereo not drawn) [Example 351, N-(2-(3,6-difluoro-2-methylphenoxy)-6-(1-methyl-6-oxo-1,6-dihydropyridin-3-yl)pyrimidin-4-yl)butane-2-sulfonamide]
< 500 nM | CCCCS(=O)(=O)Nc1nc(Oc2c(C)cccc2F)nc(-c2ccc(=O)n(C)c2)c1F [Example 352, N-(5-fluoro-2-(2-fluoro-6-methylphenoxy)-6-(1-methyl-6-oxo-1,6-dihydropyridin-3-yl)pyrimidin-4-yl)butane-1-sulfonamide]
< 500 nM | CCCCS(=O)(=O)Nc1cc(-c2ccc(=O)n(C)c2)nc(OC2CCOCC2)n1 [Example 353, N-(6-(1-methyl-6-oxo-1,6-dihydropyridin-3-yl)-2-((tetrahydro-2H-pyran-4-yl)oxy)pyrimidin-4-yl)butane-1-sulfonamide]
< 500 nM | CCCS(=O)(=O)Nc1cc(-c2ccc(=O)n(C)c2)nc(OC2CCOCC2)n1 [Example 354, N-(6-(1-methyl-6-oxo-1,6-dihydropyridin-3-yl)-2-((tetrahydro-2H-pyran-4-yl)oxy)pyrimidin-4-yl)propane-1-sulfonamide]
